This is an account of results in the supplement of paper PMC11781733.

Structures can show the parent of a compound that is named as a salt.

Holding throughout (details): exposure time: 15 min to 3 h acute
For test [1], the system named is Dugesia japonica. The test can be described thus: resting fraction in blue light vs vehicle (difference in fraction x100 vs vehicle); higher = higher incidence or increase relative to vehicle control. Summed up: (§1)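 The resting fraction, in the dark or under blue light, comes from automated tracking of intact, fasted Dugesia japonica. Worms sat singly in wells of a 48-well plate in 200 μL and were tested 15 min to 3 h after exposure in 0.5% DMSO or water vehicle. The plate's vehicle median was subtracted from each worm and the difference multiplied by 100, then the median was reported after excluding worms that crawled out.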

Test [2] has as its system Dugesia japonica. The test can be described thus: speed second 30 s blue light vs vehicle (% change vs vehicle); higher = higher incidence or increase relative to vehicle control. Summed up:
(§2)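 For each worm, crawling speed under dark or blue-light conditions was tracked automatically and expressed against the median of that plate's vehicle worms, and the reported value is the median percent change. The worms were intact, fasted Dugesia japonica held one per well in 200 μL in a 48-well plate, exposed in 0.5% DMSO or water vehicle and tested from 15 min to 3 h afterwards. Eight were used per concentration per plate across technical triplicate (n = 24), excluding any that crawled out.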

The test system of test [3] is Dugesia japonica. The test can be described thus: contracted body shape incidence (% planarians (vehicle-normalised)); higher = higher incidence or increase relative to vehicle control. The procedure, abridged: (§3)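 Single D. japonica planarians, fasted 5–7 days, sat in 200 μL per well of sealed 48-well plates and were screened 15 minutes–3 hours after exposure to at least 5 concentrations. Shapes were scored by hand and blind. The reported value is the incidence of a particular shape, or of any abnormal shape, ×100, set against in-plate vehicle controls with negatives taken as 0.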

Test [4] has as its system Dugesia japonica. Nature of the test: loss of heat-induced scrunching incidence (% planarians (vehicle-normalised)); higher = higher incidence or increase relative to vehicle control. Summed up:
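Planarians of the species D. japonica, fasted for 5–7 days, were placed singly in wells of sealed 48-well plates in 200 μL and exposed to at least 5 concentrations, 24 worms per concentration in technical triplicates. Scrunching in response to a noxious heat stimulus was tested within 15 minutes–3 hours, and any worm that crawled out was excluded. The reported figure is the incidence of non-scrunching worms, normalised to vehicle controls on the same plate. This incidence is given ×100, with negatives set to 0.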

Test [5] relates to Dugesia japonica. Nature of the test: crawl-out incidence (% planarians); higher = higher incidence or increase relative to vehicle control. As to the method:
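Adult asexual Dugesia japonica planarians (1 per well, 48-well plate, n=24 over technical triplicates) were exposed acutely (15 min to 3 h) to each compound (0.5% DMSO or water vehicle) and screened on a robotic platform for crawl-out, stickiness, body shape, phototaxis, noxious-heat scrunching and locomotion endpoints. Binary endpoints are incidence rate x100. Continuous endpoints are the median response normalised to the plate vehicle median, as % change or difference. Negative incidences after vehicle subtraction were set to 0.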

The test system of test [6] is Dugesia japonica. Nature of the test: any abnormal body shape incidence (% planarians (vehicle-normalised)); higher = higher incidence or increase relative to vehicle control. Summed up:
as §3

In test [7] the test system is Dugesia japonica. The test can be described thus: corkscrew incidence (% planarians (vehicle-normalised)); higher = higher incidence or increase relative to vehicle control. Summed up: as §3
For test [8], the system named is Dugesia japonica. The test can be described thus: speed first 30 s blue light vs vehicle (% change vs vehicle); higher = higher incidence or increase relative to vehicle control. Summed up: as §2
Test [9] relates to Dugesia japonica. Nature of the test: noxious heat displacement strength vs vehicle (% change vs vehicle); higher = higher incidence or increase relative to vehicle control. The procedure, abridged: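 Values are the median percent change in displacement strength under noxious heat, scored by automated object tracking in the scrunching assay with intact, fasted Dugesia japonica. Each worm was placed alone in a well of a 48-well plate in 200 μL and tested 15 min to 3 h after exposure in 0.5% DMSO or water vehicle. Eight worms per concentration per plate were run in technical triplicate (n = 24), with each worm normalised to the plate's vehicle median and worms that crawled out excluded.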

Test [10] deals with Dugesia japonica. The test can be described thus: stickiness incidence (% planarians (vehicle-normalised)); higher = higher incidence or increase relative to vehicle control. The procedure, abridged:
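Fasted Dugesia japonica planarians, one per well of a sealed 48-well plate in 200 μL solution, were tested 15 min–3 h after exposure to half- or quarter-log concentration series. The vehicle was 0.5% DMSO or water. Stickiness was scored as a binary endpoint in the Stickiness assay, pooling technical triplicates (n = 24). Incidence was normalised to in-plate vehicle incidence, with negatives set to 0, and multiplied by 100. Crawled-out worms were excluded.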

For test [11], the system named is Dugesia japonica. The test can be described thus: anxiety (time in outer well region) vs vehicle (% change vs vehicle); higher = higher incidence or increase relative to vehicle control. The procedure, abridged:
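The value is the median normalized time that planarians spent in the outer portion of the well. D. japonica worms, fasted 5–7 days, were held singly in 200 μL per well of sealed 48-well plates at at least 5 concentrations (n = 24 per concentration) and screened within 15 minutes–3 hours. Each worm's response was divided by, or reduced by, the plate vehicle median and then multiplied by 100, and worms that crawled out were left out.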

Test [12] relates to Dugesia japonica. Nature of the test: speed in dark vs vehicle (% change vs vehicle); higher = higher incidence or increase relative to vehicle control. Here is the method: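 Adult asexual Dugesia japonica planarians (1 per well, 48-well plate, n=24 over technical triplicates) were exposed acutely (15 min to 3 h) to each compound (0.5% DMSO or water vehicle) and screened on a robotic platform for crawl-out, stickiness, body shape, phototaxis, noxious-heat scrunching and locomotion endpoints. Binary endpoints are incidence rate x100 normalised to in-plate vehicle controls. Continuous endpoints are the median response normalised to the plate vehicle median, as % change or difference. Negative incidences after vehicle subtraction were set to 0.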

For test [13], the system named is Dugesia japonica. The test can be described thus: total locomotor bursts minus vehicle (bursts difference vs vehicle); higher = higher incidence or increase relative to vehicle control. The procedure, abridged:
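Fasted Dugesia japonica planarians were placed one per well in a sealed 48-well plate with 200 μL solution and exposed to half- or quarter-log concentration series, with 0.5% DMSO or water as vehicle. Testing took place 15 min–3 h after exposure, with technical triplicates totalling n = 24. Total locomotor bursts, an unstimulated behaviour, were scored by image-based object tracking, and the plate vehicle-control median was subtracted from each planarian's value without scaling. The reported value is the median normalised response, excluding worms that crawled out.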

In test [14] the test system is Dugesia japonica. The test can be described thus: hyperkinesis incidence (% planarians (vehicle-normalised)); higher = higher incidence or increase relative to vehicle control. Summed up: as §3
In test [15] the test system is Dugesia japonica. Nature of the test: pharynx extrusion incidence (% planarians (vehicle-normalised)); higher = higher incidence or increase relative to vehicle control. Summed up: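 Pharynx extrusion was scored manually and blind as a body-shape category in intact, fasted Dugesia japonica, one per well of a 48-well plate in 200 μL. Worms were tested 15 min to 3 h after exposure in 0.5% DMSO or water vehicle. Eight worms per concentration per plate were run in technical triplicate (n = 24). The incidence rate ×100 was normalised to in-plate vehicle controls, negatives were set to 0, and worms that crawled out were excluded.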

Test [16] has as its system Dugesia japonica. The test can be described thus: C-shape incidence (% planarians (vehicle-normalised)); higher = higher incidence or increase relative to vehicle control. Summed up: as §3
In test [17] the test system is Dugesia japonica. Nature of the test: loss of phototaxis incidence (% planarians (vehicle-normalised)); higher = higher incidence or increase relative to vehicle control. The procedure, abridged:
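Loss of phototaxis was scored as a yes/no endpoint in intact, fasted Dugesia japonica, one per well of a 48-well plate in 200 μL. Worms were tested 15 min to 3 h after exposure in 0.5% DMSO or water vehicle, using automated object tracking. Eight worms per concentration per plate were run in technical triplicate (n = 24). The incidence rate ×100 was normalised to in-plate vehicle controls, negatives were set to 0, and worms that crawled out were excluded.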

For test [18], the system named is Dugesia japonica. The test can be described thus: resting fraction in dark vs vehicle (difference in fraction x100 vs vehicle); higher = higher incidence or increase relative to vehicle control. Summed up:
as §1

Take `CN(C)CCCC1(c2ccc(F)cc2)OCc2cc(C#N)ccc21` (configuration not stated) [citalopram hydrobromide] (10 µM): the “resting fraction in blue light” value with Dugesia japonica [1] was determined as 0.82. Moreover, in the test on Dugesia japonica [2], the “speed second 30 s blue light” value is -12.8. For the same molecule, the “contracted body shape incidence” value in the test on Dugesia japonica [3] worked out at 0. For the same molecule, in the test with Dugesia japonica [4], the “loss of heat-induced scrunching incidence” value worked out at 25. In the test with Dugesia japonica [5], this molecule returned a crawl-out incidence of 0. The “any abnormal body shape incidence” value with Dugesia japonica [6] worked out at 12.5. The molecule further returned a corkscrew incidence with Dugesia japonica [7] of 0. Besides, the “speed first 30 s blue light” value with Dugesia japonica [8] came to 9.22. The “noxious heat displacement strength” value in the test on Dugesia japonica [9] was -8.3. The molecule further returned a stickiness incidence in the test with Dugesia japonica [10] of 12.5. This molecule also came in with an anxiety with Dugesia japonica [11] of 5.9. Further, the speed in dark in the test on Dugesia japonica [12] was -7.94. The “total locomotor bursts minus vehicle” value in the test on Dugesia japonica [13] worked out at 1.75. Also, the hyperkinesis incidence in the test on Dugesia japonica [14] came out at 8.33. The pharynx extrusion incidence in the test on Dugesia japonica [15] worked out at 0. This molecule also had a C-shape incidence in the test with Dugesia japonica [16] of 0. The “loss of phototaxis incidence” value in the test with Dugesia japonica [17] was 16.7. For the same molecule, in the test on Dugesia japonica [18], the “resting fraction in dark” value is 1.41.
For `O=C1CCc2ccc(OCCCCN3CCN(c4cccc(Cl)c4Cl)CC3)cc2N1` [aripiprazole] (1 µM), the “resting fraction in blue light” value in the test on Dugesia japonica [1] is -0.33. Besides, the “speed second 30 s blue light” value in the test with Dugesia japonica [2] is 14.3. In the test with Dugesia japonica [3], the “contracted body shape incidence” value is 0. Also, the “loss of heat-induced scrunching incidence” value in the test on Dugesia japonica [4] is ≤ 0. In the test on Dugesia japonica [5], this molecule had a crawl-out incidence of 0. In addition, the “any abnormal body shape incidence” value in the test on Dugesia japonica [6] was 0. Also, in the test on Dugesia japonica [7], the corkscrew incidence stood at 0. The “speed first 30 s blue light” value in the test with Dugesia japonica [8] amounted to 26. For the same molecule, the “noxious heat displacement strength” value in the test on Dugesia japonica [9] amounted to 14.8. In the test with Dugesia japonica [10], the stickiness incidence was ≤ 0. In the test on Dugesia japonica [11], this molecule yielded an anxiety of 1.67. Moreover, the speed in dark in the test with Dugesia japonica [12] stood at 42.8. For the same molecule, in the test with Dugesia japonica [13], the “total locomotor bursts minus vehicle” value was -5.5. Also, the hyperkinesis incidence in the test on Dugesia japonica [14] is 0. In the test with Dugesia japonica [15], this molecule gave a pharynx extrusion incidence of 0. For the same molecule, in the test on Dugesia japonica [16], the C-shape incidence is 0. Besides, the “loss of phototaxis incidence” value with Dugesia japonica [17] worked out at 29.2. Moreover, the “resting fraction in dark” value in the test with Dugesia japonica [18] was -2.8.
Consider `O=C(CCCN1CCC(O)(c2ccc(Br)cc2)CC1)c1ccc(F)cc1` [bromperidol] (1 µM), for which, in the test with Dugesia japonica [1], the “resting fraction in blue light” value stood at 17.6. Besides, the “speed second 30 s blue light” value in the test with Dugesia japonica [2] is -17.1. Further, the “contracted body shape incidence” value in the test on Dugesia japonica [3] came out at 0. Also, the “loss of heat-induced scrunching incidence” value in the test on Dugesia japonica [4] was found to be 30.4. This molecule gave a crawl-out incidence in the test on Dugesia japonica [5] of 12.5. Also, the “any abnormal body shape incidence” value in the test with Dugesia japonica [6] was found to be 17.4. The molecule also yielded a corkscrew incidence in the test on Dugesia japonica [7] of 4.35. In addition, the “speed first 30 s blue light” value with Dugesia japonica [8] is -39.2. Besides, the “noxious heat displacement strength” value in the test with Dugesia japonica [9] is -35.1. For the same molecule, the stickiness incidence with Dugesia japonica [10] was ≤ 0. The anxiety in the test with Dugesia japonica [11] came out at 7.55. Besides, in the test with Dugesia japonica [12], the speed in dark is -18.6. The “total locomotor bursts minus vehicle” value in the test with Dugesia japonica [13] is 2.5. The hyperkinesis incidence in the test with Dugesia japonica [14] came out at 17.4. The pharynx extrusion incidence in the test with Dugesia japonica [15] is 0. The C-shape incidence in the test with Dugesia japonica [16] is 0. Also, the “loss of phototaxis incidence” value in the test with Dugesia japonica [17] was ≤ 0. Besides, the “resting fraction in dark” value with Dugesia japonica [18] came to 14.6.
Regarding `CN1C(=O)CN=C(c2ccccc2)c2cc(Cl)ccc21` [diazepam] (1 µM), the “resting fraction in blue light” value with Dugesia japonica [1] was -0.17. For the same molecule, in the test with Dugesia japonica [2], the “speed second 30 s blue light” value is -4.48. Moreover, the “contracted body shape incidence” value with Dugesia japonica [3] was 0. Besides, the “loss of heat-induced scrunching incidence” value in the test with Dugesia japonica [4] was determined as 12.5. The crawl-out incidence with Dugesia japonica [5] turned out to be 0. In addition, the “any abnormal body shape incidence” value in the test on Dugesia japonica [6] came to 0. The molecule further returned a corkscrew incidence with Dugesia japonica [7] of 0. In the test with Dugesia japonica [8], the “speed first 30 s blue light” value stood at 30.1. In addition, the “noxious heat displacement strength” value in the test with Dugesia japonica [9] is -18.8. For the same molecule, in the test on Dugesia japonica [10], the stickiness incidence came to 4.17. For the same molecule, the anxiety in the test on Dugesia japonica [11] is 2.23. In the test on Dugesia japonica [12], this molecule displayed a speed in dark of 23.3. Besides, the “total locomotor bursts minus vehicle” value in the test with Dugesia japonica [13] was -4.5. The hyperkinesis incidence with Dugesia japonica [14] was 0. The molecule also registered a pharynx extrusion incidence in the test with Dugesia japonica [15] of 0. This molecule registered a C-shape incidence in the test with Dugesia japonica [16] of 0. For the same molecule, the “loss of phototaxis incidence” value with Dugesia japonica [17] is 8.33. For the same molecule, in the test with Dugesia japonica [18], the “resting fraction in dark” value is -6.08.
